Measurements reported in ChEMBL document CHEMBL5724914, “Linking interpersonal differences in gut microbiota composition and drug biotransformation activity” (2024).

conditions: human gut metagenome, 24 h, 2 µM
Note: call rule not given here.

Row | SMILES | Bacterial Biotransformation
1 | CC(C)N(CCC(C(N)=O)(c1ccccc1)c1ccccn1)C(C)C.O=P(O)(O)O (stereo not given) [DISOPYRAMIDE PHOSPHATE] | Compound NOT metabolized
2 | CNC(=C[N+](=O)[O-])NCCSCc1ccc(CN(C)C)o1 [RANITIDINE] | Compound metabolized

experiment: (§1) The drug is tested on Z-001 corresponding to mouse gut metagenome with ENA study accession number: PRJEB37062 and ENA sample accession number: ERS12561801 for biotransformation under anaerobic condition. The drug concentrations were measured over 9 timepoints collected between 0 and 24 hours of incubation by liquid-chromatography-coupled mass spectrometry (LC–MS); conditions: 2 µM

Row | SMILES | Bacterial Biotransformation
3 | CC(C)N(CCC(C(N)=O)(c1ccccc1)c1ccccn1)C(C)C.O=P(O)(O)O (stereo not given) [DISOPYRAMIDE PHOSPHATE] | Compound NOT metabolized
4 | CNC(=C[N+](=O)[O-])NCCSCc1ccc(CN(C)C)o1 [RANITIDINE] | Compound metabolized

experiment: as §1, with “Z-030” for “Z-001”, “ERS12561829” for “ERS12561801”; conditions: 2 µM

Row | SMILES | Bacterial Biotransformation
5 | CC(C)N(CCC(C(N)=O)(c1ccccc1)c1ccccn1)C(C)C.O=P(O)(O)O (stereo not given) [DISOPYRAMIDE PHOSPHATE] | Compound NOT metabolized
6 | CNC(=C[N+](=O)[O-])NCCSCc1ccc(CN(C)C)o1 [RANITIDINE] | Compound NOT metabolized

experiment: as §1, with “Z-004” for “Z-001”, “to” for “to mouse gut”, “ERS12561804” for “ERS12561801”; conditions: 2 µM

Row | SMILES | Bacterial Biotransformation
7 | CC(C)N(CCC(C(N)=O)(c1ccccc1)c1ccccn1)C(C)C.O=P(O)(O)O (stereo not given) [DISOPYRAMIDE PHOSPHATE] | Compound NOT metabolized
8 | CNC(=C[N+](=O)[O-])NCCSCc1ccc(CN(C)C)o1 [RANITIDINE] | Compound metabolized

experiment: as §1, with “Z-024” for “Z-001”, “pig” for “mouse”, “ERS12561823” for “ERS12561801”; conditions: 2 µM

Row | SMILES | Bacterial Biotransformation
9 | CC(C)N(CCC(C(N)=O)(c1ccccc1)c1ccccn1)C(C)C.O=P(O)(O)O (stereo not given) [DISOPYRAMIDE PHOSPHATE] | Compound NOT metabolized
10 | CNC(=C[N+](=O)[O-])NCCSCc1ccc(CN(C)C)o1 [RANITIDINE] | Compound NOT metabolized

experiment: as §1, with “Z-028” for “Z-001”, “ERS12561827” for “ERS12561801”; conditions: 2 µM

Row | SMILES | Bacterial Biotransformation
11 | CC(C)N(CCC(C(N)=O)(c1ccccc1)c1ccccn1)C(C)C.O=P(O)(O)O (stereo not given) [DISOPYRAMIDE PHOSPHATE] | Compound NOT metabolized
12 | CNC(=C[N+](=O)[O-])NCCSCc1ccc(CN(C)C)o1 [RANITIDINE] | Compound metabolized

experiment: as §1, with “Z-010” for “Z-001”, “to” for “to mouse gut”, “ERS12561810” for “ERS12561801”; conditions: 2 µM

Row | SMILES | Bacterial Biotransformation
13 | CC(C)N(CCC(C(N)=O)(c1ccccc1)c1ccccn1)C(C)C.O=P(O)(O)O (stereo not given) [DISOPYRAMIDE PHOSPHATE] | Compound NOT metabolized
14 | CNC(=C[N+](=O)[O-])NCCSCc1ccc(CN(C)C)o1 [RANITIDINE] | Compound metabolized

experiment: as §1, with “Z-026” for “Z-001”, “to” for “to mouse gut”, “ERS12561825” for “ERS12561801”; conditions: 2 µM

Row | SMILES | Bacterial Biotransformation
15 | CC(C)N(CCC(C(N)=O)(c1ccccc1)c1ccccn1)C(C)C.O=P(O)(O)O (stereo not given) [DISOPYRAMIDE PHOSPHATE] | Compound NOT metabolized
16 | CNC(=C[N+](=O)[O-])NCCSCc1ccc(CN(C)C)o1 [RANITIDINE] | Compound metabolized

experiment: as §1, with “WLS-370” for “Z-001”, “human” for “mouse”, “ERS12561793” for “ERS12561801”; conditions: 2 µM

Row | SMILES | Bacterial Biotransformation
17 | CC(C)N(CCC(C(N)=O)(c1ccccc1)c1ccccn1)C(C)C.O=P(O)(O)O (stereo not given) [DISOPYRAMIDE PHOSPHATE] | Compound NOT metabolized
18 | CNC(=C[N+](=O)[O-])NCCSCc1ccc(CN(C)C)o1 [RANITIDINE] | Compound NOT metabolized

conditions: human gut metagenome, 24 h, 2 µM; remark: another data set of the same source

Row | SMILES | Bacterial Biotransformation
19 | CC(C)N(CCC(C(N)=O)(c1ccccc1)c1ccccn1)C(C)C.O=P(O)(O)O (stereo not given) [DISOPYRAMIDE PHOSPHATE] | Compound metabolized
20 | CNC(=C[N+](=O)[O-])NCCSCc1ccc(CN(C)C)o1 [RANITIDINE] | Compound NOT metabolized

experiment: as §1, with “Z-020” for “Z-001”, “rabbit” for “mouse”, “ERS12561819” for “ERS12561801”; conditions: 2 µM

Row | SMILES | Bacterial Biotransformation
21 | CC(C)N(CCC(C(N)=O)(c1ccccc1)c1ccccn1)C(C)C.O=P(O)(O)O (stereo not given) [DISOPYRAMIDE PHOSPHATE] | Compound NOT metabolized
22 | CNC(=C[N+](=O)[O-])NCCSCc1ccc(CN(C)C)o1 [RANITIDINE] | Compound metabolized

conditions: human gut metagenome, 24 h, 2 µM; remark: another data set of the same source

Row | SMILES | Bacterial Biotransformation
23 | CC(C)N(CCC(C(N)=O)(c1ccccc1)c1ccccn1)C(C)C.O=P(O)(O)O (stereo not given) [DISOPYRAMIDE PHOSPHATE] | Compound NOT metabolized
24 | CNC(=C[N+](=O)[O-])NCCSCc1ccc(CN(C)C)o1 [RANITIDINE] | Compound NOT metabolized

experiment: as §1, with “WLS-090” for “Z-001”, “human” for “mouse”, “ERS12561753” for “ERS12561801”; conditions: 2 µM

Row | SMILES | Bacterial Biotransformation
25 | CC(C)N(CCC(C(N)=O)(c1ccccc1)c1ccccn1)C(C)C.O=P(O)(O)O (stereo not given) [DISOPYRAMIDE PHOSPHATE] | Compound metabolized
26 | CNC(=C[N+](=O)[O-])NCCSCc1ccc(CN(C)C)o1 [RANITIDINE] | Compound NOT metabolized

conditions: human gut metagenome, 24 h, 2 µM; remark: another data set of the same source

Row | SMILES | Bacterial Biotransformation
27 | CC(C)N(CCC(C(N)=O)(c1ccccc1)c1ccccn1)C(C)C.O=P(O)(O)O (stereo not given) [DISOPYRAMIDE PHOSPHATE] | Compound metabolized
28 | CNC(=C[N+](=O)[O-])NCCSCc1ccc(CN(C)C)o1 [RANITIDINE] | Compound metabolized

conditions: human gut metagenome, 24 h, 2 µM; remark: another data set of the same source

Row | SMILES | Bacterial Biotransformation
29 | CC(C)N(CCC(C(N)=O)(c1ccccc1)c1ccccn1)C(C)C.O=P(O)(O)O (stereo not given) [DISOPYRAMIDE PHOSPHATE] | Compound NOT metabolized
30 | CNC(=C[N+](=O)[O-])NCCSCc1ccc(CN(C)C)o1 [RANITIDINE] | Compound metabolized

experiment: as §1, with “Z-002” for “Z-001”, “rabbit” for “mouse”, “ERS12561802” for “ERS12561801”; conditions: 2 µM

Row | SMILES | Bacterial Biotransformation
31 | CC(C)N(CCC(C(N)=O)(c1ccccc1)c1ccccn1)C(C)C.O=P(O)(O)O (stereo not given) [DISOPYRAMIDE PHOSPHATE] | Compound NOT metabolized
32 | CNC(=C[N+](=O)[O-])NCCSCc1ccc(CN(C)C)o1 [RANITIDINE] | Compound metabolized

experiment: as §1, with “Z-027” for “Z-001”, “to” for “to mouse gut”, “ERS12561826” for “ERS12561801”; conditions: 2 µM

Row | SMILES | Bacterial Biotransformation
33 | CC(C)N(CCC(C(N)=O)(c1ccccc1)c1ccccn1)C(C)C.O=P(O)(O)O (stereo not given) [DISOPYRAMIDE PHOSPHATE] | Compound NOT metabolized
34 | CNC(=C[N+](=O)[O-])NCCSCc1ccc(CN(C)C)o1 [RANITIDINE] | Compound NOT metabolized

conditions: human gut metagenome, 24 h, 2 µM; remark: another data set of the same source

Row | SMILES | Bacterial Biotransformation
35 | CC(C)N(CCC(C(N)=O)(c1ccccc1)c1ccccn1)C(C)C.O=P(O)(O)O (stereo not given) [DISOPYRAMIDE PHOSPHATE] | Compound NOT metabolized
36 | CNC(=C[N+](=O)[O-])NCCSCc1ccc(CN(C)C)o1 [RANITIDINE] | Compound NOT metabolized

conditions: human gut metagenome, 24 h, 2 µM; remark: another data set of the same source

Row | SMILES | Bacterial Biotransformation
37 | CC(C)N(CCC(C(N)=O)(c1ccccc1)c1ccccn1)C(C)C.O=P(O)(O)O (stereo not given) [DISOPYRAMIDE PHOSPHATE] | Compound NOT metabolized
38 | CNC(=C[N+](=O)[O-])NCCSCc1ccc(CN(C)C)o1 [RANITIDINE] | Compound metabolized

experiment: as §1, with “WLS-170” for “Z-001”, “human” for “mouse”, “ERS12561762” for “ERS12561801”; conditions: 2 µM

Row | SMILES | Bacterial Biotransformation
39 | CC(C)N(CCC(C(N)=O)(c1ccccc1)c1ccccn1)C(C)C.O=P(O)(O)O (stereo not given) [DISOPYRAMIDE PHOSPHATE] | Compound NOT metabolized
40 | CNC(=C[N+](=O)[O-])NCCSCc1ccc(CN(C)C)o1 [RANITIDINE] | Compound NOT metabolized
